How the values were obtained:
physchem [1] = conditions: octanol/water, pH 7.4
[2] = hexadecane/water, pH 7.4
in vivo = conditions: Wistar, rat
[3] = octanol/water
physchem [4] = conditions: octanol/water
[5] = hexadecane/water
Description: Hexadecane-water partition coefficient, log P of the compound
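Throughout, for Kp: drug concentration in brain divided by that in blood, measured in Wistar rats.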

| Structure (SMILES) | logD (physchem [1]) | logD [2] | further results |
| --- | --- | --- | --- |
| [O-][S+](c1ccccc1)c1ccccc1 | 2.1 | 0.66 | – |
| CNCCCN1c2ccccc2CCc2ccccc21 [DESIPRAMINE] | – | – | Kp (in vivo; brain): 10 |
| CN1C(=O)c2ccccc2C1=O | 1.32 | -0.15 | – |
| O=C1CCCN1CCCCN1CCN(c2cc(C(F)(F)F)ccn2)CC1 | – | – | Kp (in vivo; brain): 1.45 |
| O=[N+]([O-])c1ccccc1 [NITROBENZENE] | 1.83 | – | – |
| CC(=O)N(C)c1ccccc1 | 1 | -0.54 | – |
| CCN1C(=O)Cc2ccccc21 | 1.69 | 0.49 | – |
| Cn1c(=O)n(C)c2ccccc21 | 1.33 | 0.53 | – |
| Clc1ccccn1 [2-CHLOROPYRIDINE] | 1.23 | 0.52 | – |
| Cc1nc2n(c(=O)c1CCN1CCC(c3noc4cc(F)ccc34)CC1)CCCC2O (configuration not stated) [PALIPERIDONE] | – | – | Kp (in vivo; brain / blood): 0.214 |
| c1ccc2c(c1)COC2 | 1.74 | 1.36 | – |
| c1ccc2ncccc2c1 [QUINOLINE] | 1.99 | – | – |
| N#Cc1ccncc1 [ISONICOTINONITRILE] | – | – | logP [3]: 0.46 |
| CN1Cc2c(-c3noc(C(C)(C)O)n3)ncn2-c2cccc(Cl)c2C1=O | – | – | Kp (in vivo; brain / blood): 0.0457 |
| COc1ccc(C#N)cc1 | 1.75 | 0.92 | – |
| CN1Cc2c(-c3noc(C(C)(O)CO)n3)ncn2-c2cccc(Cl)c2C1=O (configuration not stated) | – | – | Kp (in vivo; brain): 0.0151 |
| CN(C)CCC=C1c2ccccc2CCc2ccccc21 [AMITRIPTYLINE] | – | – | Kp (in vivo; brain / blood): 9.55 |
| CC(C)c1nc(-c2ncn3c2CN(C)C(=O)c2c(Cl)cccc2-3)no1 | – | – | Kp (in vivo; brain / blood): 0.501 |
| c1ccc2nocc2c1 [BENZO[C]ISOXAZOLE] | 1.49 | 0.75 | – |
| O=C1Cc2ccccc2CO1 | 1.02 | -0.29 | – |
| Cc1cnccn1 | – | – | logP (physchem [4]): 0.23 |
| COc1ccc(CN(CCN(C)C)c2ccccn2)cc1 [PYRILAMINE] | – | – | Kp (in vivo; brain): 3.09 |

| Structure (SMILES) | logD (physchem [1]) | logD [2] | further results |
| --- | --- | --- | --- |
| Clc1ccc2ncncc2c1 | – | – | logP (physchem [4]): 1.78 |
| CN1C[C@@H]2c3ccccc3Oc3ccc(Cl)cc3[C@H]2C1 [ASENAPINE] | – | – | Kp (in vivo; brain): 10.7 |
| CCn1c(C)cc(=O)c2ccc(Cl)cc21 | 1.8 | -1.4 | – |
| c1ccc2nnccc2c1 [CINNOLINE] | – | – | logP (physchem [4]): 1.01 |
| Clc1ccc2c(c1)[C@H]1CNC[C@@H]1c1ccccc1O2 | – | – | Kp (in vivo; brain / blood): 2.45 |
| Cc1cccc2c1Oc1ccccc1[C@@]1(O)CCN(C)C[C@@H]21 | – | – | Kp (in vivo; brain): 6.61 |
| CN(C)CCCN1c2ccccc2CCc2ccccc21 [IMIPRAMINE] | – | – | Kp (in vivo; brain / blood): 11.2 |
| Clc1ccc2cc[nH]c2c1 | 3.22 | 1.36 | – |
| c1ccc(Cn2ccnc2)cc1 [BENZYLIMIDAZOLE] | 1.55 | -0.83 | – |
| Cc1nc2n(c(=O)c1CCN1CCC(c3noc4cc(F)ccc34)CC1)CCCC2 [RISPERIDONE] | – | – | Kp (in vivo; brain): 0.955 |
| [O-][S+](CC1CCCCC1)c1ccccc1 (configuration not stated) | 2.81 | 1.23 | – |
| CN1CCN2c3ncccc3Cc3ccccc3C2C1 (configuration not stated) [MIRTAZAPINE] | – | – | Kp (in vivo; brain): 3.39 |
| Clc1ccc(Cn2ccnn2)cc1 | – | – | logP (physchem [4]): 1.78 |
| CC(=O)c1ccccc1 [ACETOPHENONE] | 1.61 | 0.96 | logP [5]: 1.12 |
| Cc1ccc2c(c1)c(C)cc(C)[n+]2[O-] | 1.71 | -0.57 | – |
| O=C1CCCN1Cc1ccccc1 | 1.32 | -0.6 | – |
| CN1C(=O)Cc2ccccc21 | 1.25 | 0 | – |
| N#Cc1ccccc1 [BENZONITRILE] | 1.56 | 0.91 | logP [5]: 0.99 |
| CN1Cc2ccccc2C1=O | 0.87 | -1.07 | – |
| Cc1cccc2c1Oc1ccccc1[C@@]1(O)CCNC[C@@H]21 | – | – | Kp (in vivo; brain): 3.31 |
| O=S(=O)(c1ccccc1)c1ccccc1 [(PHENYLSULFONYL)BENZENE] | 2.41 | 0.75 | – |
| Cc1ccc2occc(=O)c2c1 | 1.9 | 0.56 | – |

Continued, in another order:

| logD (physchem [1]) | logD [2] | Structure (SMILES) | further results |
| --- | --- | --- | --- |
| 2.24 | 0.66 | c1ccc2[nH]ccc2c1 [INDOLE] | – |
| 2.09 | -0.03 | O=c1ccccn1Cc1cccc(Cl)c1 | – |
| 2.47 | 0.18 | O=c1ccccn1Cc1ccc(C(F)(F)F)cc1 | – |
| 1.37 | -0.72 | O=c1ccccn1Cc1ccccc1 | – |
| 0.71 | -0.98 | CN(C)C(=O)c1ccccc1 | – |
| 0.79 | -0.49 | c1cnc2cccnc2c1 | – |
| 2.09 | 0.98 | c1ccc2cnccc2c1 [ISOQUINOLINE] | – |
| 1.6 | 0.16 | CN(C)C(=O)N(C)c1ccccc1 | – |
| 1.83 | 0.07 | CN(C)C(=O)Cc1ccc(Br)cc1 | – |
| 2.47 | -1.76 | O=c1ccn(Cc2ccc(-c3ccccc3)cc2)cc1 | – |
| 1.34 | -0.89 | Cn1cnc2ccccc21 | – |
| 1.31 | 0.47 | c1ccc2nccnc2c1 [QUINOXALINE] | – |
| 2.15 | 1.9 | COc1ccccc1 [ANISOLE] | logP [5]: 2.13 |
| 1.52 | -0.15 | Cn1c(=O)ccc2ccccc21 | – |

— ChEMBL document CHEMBL1155018, “Toward prediction of alkane/water partition coefficients” (J Med Chem, 2008)
